Data taken from publication PMC6979384, “Characterization of the plant homeodomain (PHD) reader family for their histone tail interactions” (Epigenetics & Chromatin, 2020).

What was measured:
Assay in all cases: Histone peptide microarray
Assay type in all cases: binding, human
BAZ2B = conditions: BAZ2B; sheet "Array Heatmap"; each array performed twice, total n = 4
How it was run: (§1)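 Each reader, produced as a GST fusion and purified, was tested at 0.5 μM on synthetic histone peptides (293 in total) carrying single or combinatorial marks. Intensities averaged over four replicates.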

CHD5 (PPCC) = conditions: CHD5 (PPCC); sheet "Array Heatmap"; each array performed twice, total n = 4
How it was run: as §1

BPTF (PB) = conditions: BPTF (PB); sheet "Array Heatmap"; each array performed twice, total n = 4
How it was run: as §1

ING3 = conditions: ING3; sheet "Array Heatmap"; each array performed twice, total n = 4
How it was run: as §1

KDM5B (1) = conditions: KDM5B (1); sheet "Array Heatmap"; each array performed twice, total n = 4
How it was run: as §1

PHRF1 (RP) = conditions: PHRF1 (RP); sheet "Array Heatmap"; each array performed twice, total n = 4
How it was run: as §1

PHF2 = conditions: PHF2; sheet "Array Heatmap"; each array performed twice, total n = 4
How it was run: as §1

DIDO1 = conditions: DIDO1; sheet "Array Heatmap"; each array performed twice, total n = 4
How it was run: as §1

KDM5A (3) = conditions: KDM5A (3); sheet "Array Heatmap"; each array performed twice, total n = 4
How it was run: as §1

ING5 = conditions: ING5; sheet "Array Heatmap"; each array performed twice, total n = 4
How it was run: as §1

SP140L = conditions: SP140L; sheet "Array Heatmap"; each array performed twice, total n = 4
How it was run: as §1

MLL5 = conditions: MLL5; sheet "Array Heatmap"; each array performed twice, total n = 4
How it was run: as §1

RAG2 = conditions: RAG2; sheet "Array Heatmap"; each array performed twice, total n = 4
How it was run: as §1

KDM7A = conditions: KDM7A; sheet "Array Heatmap"; each array performed twice, total n = 4
How it was run: as §1

AIRE (PP) = conditions: AIRE (PP); sheet "Array Heatmap"; each array performed twice, total n = 4
How it was run: as §1

KDM5A (1) = conditions: KDM5A (1); sheet "Array Heatmap"; each array performed twice, total n = 4
How it was run: as §1

PHF21A = conditions: PHF21A; sheet "Array Heatmap"; each array performed twice, total n = 4
How it was run: as §1

ING1 = conditions: ING1; sheet "Array Heatmap"; each array performed twice, total n = 4
How it was run: as §1

PHF23 = conditions: PHF23; sheet "Array Heatmap"; each array performed twice, total n = 4
How it was run: as §1

PHF8 = conditions: PHF8; sheet "Array Heatmap"; each array performed twice, total n = 4
How it was run: as §1

KDM4C (TTP) = conditions: KDM4C (TTP); sheet "Array Heatmap"; each array performed twice, total n = 4
How it was run: as §1

TRIM66 (PB) = conditions: TRIM66 (PB); sheet "Array Heatmap"; each array performed twice, total n = 4
How it was run: as §1

ING4 = conditions: ING4; sheet "Array Heatmap"; each array performed twice, total n = 4
How it was run: as §1

CHD5 (PCC) = conditions: CHD5 (PCC); sheet "Array Heatmap"; each array performed twice, total n = 4
How it was run: as §1

ING2 = conditions: ING2; sheet "Array Heatmap"; each array performed twice, total n = 4
How it was run: as §1

PHF13 = conditions: PHF13; sheet "Array Heatmap"; each array performed twice, total n = 4
How it was run: as §1

KDM5B (3) = conditions: KDM5B (3); sheet "Array Heatmap"; each array performed twice, total n = 4
How it was run: as §1

TAF3 = conditions: TAF3; sheet "Array Heatmap"; each array performed twice, total n = 4
How it was run: as §1

DPF2 (PPC2W2) = conditions: DPF2 (PPC2W2); sheet "Array Heatmap"; each array performed twice, total n = 4
How it was run: as §1

MORC3 (CW) = conditions: MORC3 (CW); sheet "Array Heatmap"; each array performed twice, total n = 4
How it was run: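 GST-PHD reader, 0.5 μM, probed on 293-peptide histone array (single/combinatorial PTMs); optimized array protocol; signal = mean ± SD, n = 4.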

CHD4 (PPCC) = conditions: CHD4 (PPCC); sheet "Array Heatmap"; each array performed twice, total n = 4
How it was run: as §1

Substance | Array Heatmap value (peptide array signal) (BAZ2B) | Array Heatmap value (peptide array signal) (CHD5 (PPCC)) | Array Heatmap value (peptide array signal) (BPTF (PB)) | Array Heatmap value (peptide array signal) (ING3) | Array Heatmap value (peptide array signal) (KDM5B (1)) | Array Heatmap value (peptide array signal) (PHRF1 (RP)) | Array Heatmap value (peptide array signal) (PHF2) | Array Heatmap value (peptide array signal) (DIDO1) | Array Heatmap value (peptide array signal) (KDM5A (3)) | Array Heatmap value (peptide array signal) (ING5) | Array Heatmap value (peptide array signal) (SP140L) | Array Heatmap value (peptide array signal) (MLL5) | Array Heatmap value (peptide array signal) (RAG2) | Array Heatmap value (peptide array signal) (KDM7A) | Array Heatmap value (peptide array signal) (AIRE (PP)) | Array Heatmap value (peptide array signal) (KDM5A (1)) | Array Heatmap value (peptide array signal) (PHF21A) | Array Heatmap value (peptide array signal) (ING1) | Array Heatmap value (peptide array signal) (PHF23) | Array Heatmap value (peptide array signal) (PHF8) | further results
H3.3K27bhb (15-34): H3.3 15-34 | 0.4313 | 0.5245 | 0.3432 | 0.4499 | 0.6279 | 0.4098 | 0.5233 | 0.6388 | 0.404 | 0.34 | 0.3378 | 0.5648 | 0.2325 | 0.312 | 0.4047 | 0.4361 | 0.4386 | 0.5173 | 0.5306 | 0.363 | Array Heatmap value (peptide array signal) (KDM4C (TTP)): 0.4386; Array Heatmap value (peptide array signal) (TRIM66 (PB)): 0.6188; Array Heatmap value (peptide array signal) (ING4): 0.4357; Array Heatmap value (peptide array signal) (CHD5 (PCC)): 0.7166; Array Heatmap value (peptide array signal) (ING2): 0.6144; Array Heatmap value (peptide array signal) (PHF13): 0.6011; Array Heatmap value (peptide array signal) (KDM5B (3)): 0.4143; Array Heatmap value (peptide array signal) (TAF3): 0.2621; Array Heatmap value (peptide array signal) (DPF2 (PPC2W2)): 0.6281; Array Heatmap value (peptide array signal) (MORC3 (CW)): 0.3496; Array Heatmap value (peptide array signal) (CHD4 (PPCC)): 0.5447
H3.3K27hxo (15-34): H3.3 15-34 | 0.3359 | 0.3985 | 0.2696 | 0.3628 | 0.5964 | 0.3528 | 0.4925 | 0.6054 | 0.3948 | 0.2604 | 0.2976 | 0.4892 | 0.1931 | 0.2316 | 0.3038 | 0.3701 | 0.3552 | 0.4956 | 0.4877 | 0.2775 | Array Heatmap value (peptide array signal) (KDM4C (TTP)): 0.3245; Array Heatmap value (peptide array signal) (TRIM66 (PB)): 0.4904; Array Heatmap value (peptide array signal) (ING4): 0.3406; Array Heatmap value (peptide array signal) (CHD5 (PCC)): 0.595; Array Heatmap value (peptide array signal) (ING2): 0.5803; Array Heatmap value (peptide array signal) (PHF13): 0.4541; Array Heatmap value (peptide array signal) (KDM5B (3)): 0.3693; Array Heatmap value (peptide array signal) (TAF3): 0.2046; Array Heatmap value (peptide array signal) (DPF2 (PPC2W2)): 0.5523; Array Heatmap value (peptide array signal) (MORC3 (CW)): 0.2947; Array Heatmap value (peptide array signal) (CHD4 (PPCC)): 0.4698
